Assay results: patent US10940475B2, “Gradient-on-a-chip” (Purdue Research Foundation, priority 2017, dated 2021)
Where two headings read alike, the source gives them in different places.

What was measured:
S2 cells [1] = conditions: for cells with γ-H2Ax staining: low ROS concentration tier, gradient from 250 μM H2O2, four hours
Protocol: Human mammary epithelial non-neoplastic S1 cells^17 [used between passages 52 to 60], preinvasive S2 cells^18 [used between passages 218+2 and 218+10] and invasive T4-2 cells^19 [used between passages 28+4 and 28+10] that belong to the HMT-3522 breast cancer progression series, were cultured in H-14 medium, i.e., Dulbecco modified Eagle medium (DMEM) (Invitrogen Inc., Carlsbad, Calif.) supplemented with additives, prolactin (30.3 IU/ml; Sigma-Aldrich, St Louis, Mo.), insulin (100 μg/ml; Sigma-Aldrich), hydrocortisone (0.5 mg/ml; BD Biosciences, San Jose, Calif.), beta-estradiol (2.67×10^−5 μg/ml; Sigma-Aldrich), selenium (2.6 μg/ml; BD Biosciences) and transferrin (20 mg/ml; Sigma-Aldrich)^20. The culture medium also included epithelial growth factor (EGF) (20 mg/ml; BD Biosciences) until day 6 of culture, after which EGF was omitted from the culture medium to ensure proliferation arrest in 3D culture. Cell culture was performed at 37° C. in a humidified environment with 5% carbon dioxide and the culture medium was changed every three days for the S1 cells and every two days for S2 and T4-2 cells. Seeding densities in 2D culture were 22600 cells/cm^2 for S1 cells and 11900 cells/cm^2 for S2 and T4-2 cells. In 3D culture seeding densities were 86300 cells/cm^2 for S1 cells in the presence of Engelbreth-Holm-S warm (EHS) mouse derived Matrigel (Corning Life Sciences, Tewksbury, Ma.) or within collagen-1 rich Collymer matrix (GeniPhys™, Zionsville, Ind.) and 43150 cells/cm^2 for S2 and T4-2 cells. […] Briefly, 42 μl of Matrigel per cm^2 was used for the drip method with cells in 150 μl of medium, dripped on the gel-coated surface, before adding another 150 μl of medium with 10% EHS gel drop-by-drop all over the culture surface five minutes later (in the end seeding involved 3.47×10^4S1 cells/cm^2 per 55 μl of Matrigel; 1.74×10^4S2 or T4-2 cells/cm^2 per 55 μl of Matrigel). Collymers were prepared at different degrees of stiffness based on the formula provided by the manufacturer. S1 cells were cultured in 800 Pa Collymers stiffness, S2 cells were cultured in 800 Pa and 1500 Pa Collymers stiffness and T4-2 cells were cultured in 1500 Collymers stiffness. For the S2 cells, since they are preinvasive and nodules are surrounded by a basement membrane, basement membrane formation inducer laminin 111 (Corning) was mixed at 76 μg/ml final concentration with Collymers. For the Collymers thin-embedded culture, the surface was coated with 14 μl/cm^2 of Collymers of the desired stiffness. Collymers become opaque when they form a gel by incubation five minutes at 37° C. Cells were mixed with Collymers at the following concentrations per surface of culture and Collymers volume units: 4500 cells/cm^2/μl for S1 cells and 2262 cells/cm^2/μl for S2 and T4-2 cells. Following centrifugation at 2950 g for five minutes, the cells needed for each culture surface were put in solution in 5 μl of H-14 medium. Then, the cell suspension was mixed with Collymers (55 μl/cm^2 of culture surface) by gentle pipetting before coating on the cell culture surface, drop-by-drop all over the surface, and spreading with the pipette tip to ensure even distribution over the culture surface. After incubation five minutes at 37° C., 500 μl medium was added on top of the Collymers-embedded cells.
Antibodies used included Anti-rabbit Caspase-3 (Cell Signaling Technologies, Boston, Mass. 1/400 dilution), AOP2 (Abcam, Cambridge, Mass.; 2 μg/ml) and γ-H2AX (Ser139; Millipore, clone JBW301, 3.3 μg/ml). […]

S2 cells [2] = conditions: four hours
Protocol: (§1) A NE-4000X dual syringe pump (New era pump systems Inc., Farmingdale, N.Y.) was exposed to UV overnight before the day of experiments. The flow rate was adjusted to 0.1 ml/h, and using a 60 ml syringe a continuous inflow of medium and H2O2 (250 μM) through the inlets was maintained. The second pump was connected to the outlet to remove the medium at 0.2 ml/h to avoid overflow of liquids in the cell culture aperture of the device. The flow rate for the outlet pump was twice that of the incoming flow rate to accommodate for the use of two inlets. The paper strip with cells in 2D or 3D culture was placed in the cell culture slot of the device and exposed to the ROS gradient for four hours.
Nuclear circularity and nuclear area were measured using the ImageJ software by outlining the nuclear shape based on DAPI staining. The most circular nuclei are given a score of 1 (perfectly round nucleus). Nuclear area was measured in pixels and converted to μm^2 based on the spatial calibration table of ImageJ.

S2 cells [3] = conditions: four hours; remark: listed apart in the source
Protocol: as §1

## OO [ROS, hydrogen peroxide]
S2 cells [1]; high concentration tier, all culture conditions, four hours
  γ-H2AX response level of the cell population: around 40%
S2 cells [1]; 800 Pa Collymers
  cells with γ-H2Ax staining: 20%
S2 cells [1]; 1500 Pa Collymers culture
  cells with γ-H2Ax staining: less than 5%
S2 cells [1]; Matrigel culture
  cells with γ-H2Ax staining: less than 5%
S2 cells [1]; cells cultured on paper (2D)
  cells with γ-H2Ax staining: 20%
S2 cells [2]; ROS exposure regardless of the cell culture condition
  nuclear area: increased
S2 cells [2]; with increasing ROS concentration tiers, all culture conditions
  nuclear circularity: decreased
S2 cells [3]; low ROS concentration tier, 2D and 3D Matrigel culture
  oxidative DNA damage based on 8-OHdG expression: did no show oxidative DNA damage
S2 cells [3]; medium and high ROS concentration tiers, 2D cell culture and 3D Matrigel cell culture
  8-OHdG levels: significant, but similar increase
S2 cells [3]; regardless of the ROS levels
  AOP2 response (nodules stained for AOP2): ~100%
